Measured values published in patent US11040031B2, “Pyrazole derivatives as MALT1 inhibitors” (Janssen Pharmaceutica NV, priority 2018, dated 2021).
Where two headings read alike, the source gives them in different places.

Key:
[1] = test system: Secretion of IL10 by OCI-LY3 ABC-DLBCL cells; assay: Human IL10 Mesoscale assay (OCI-LY3); assay type: cell-based; settings: read-out: Human IL10 Mesoscale assay (OCI-LY3)
Procedure: (§1) NFKB signaling regulates the secretion of multiple cytokines, including IL6 and IL10. Secretion of the cytokines IL6 and IL10 by TMD8 or OCI-LY3 ABC-DLBCL cells was measured using a mesoscale assay.
(§2) Cell passage number should not exceed 30. Cells should be kept between 0.5-2.5 million cells per mL during culturing and cells should be supplemented every 2-3 days with fresh 50 µM beta-mercaptoenthanol. No beta-mercaptoethanol was used during the mesoscale assay.
(§3) DMSO control wells were used to determine the maximum signal (High Control (HC)). […] Compounds and cells were incubated for 24 h at 37° C. and 5% CO2 (assay volume is 150 μL). After 24 h of incubation 50 μL of the supernatant was transferred to a MSD plate (V-Plex Proinflammation Panel 1 (human) kit, Mesoscale (MSD)) and incubated for 2 h with vigorous shaking (600 rpm) at room temperature. Following incubation, plates were washed 3× with PBS+0.05% Tween-20 and 25 μL detection antibody solution (IL6 & IL10 antibodies in diluent 3 (MSD)) was added per well followed by 2 h of incubation with vigorous shaking (600 rpm) at room temperature. After 3× washes with PBS+0.05% Tween-20, plates were incubated with 150 μL 2× Read Buffer T and read on SECTOR imager.

[2] = test system: Secretion of IL6 by OCI-LY3 ABC-DLBCL cells; assay: Human IL6 Mesoscale assay (OCI-LY3); assay type: cell-based; settings: read-out: Human IL6 Mesoscale assay (OCI-LY3)
Procedure: as §1, §2, §3

[3] = molecular target: T1, full-length MALT1 protein (Strep-MALT1(1-824)-His) (Homo sapiens, UniProt Q9UDY8); assay: biochemical;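 further: fluorogenic LRSR-AMC substrate cleavage by MALT1, 50 min compound preincubation then 4 h reaction at RT, 11-point dilution from 30 µM, scaled between enzyme-free and untreated enzyme controls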
T1 sequence (Q9UDY8 1-824): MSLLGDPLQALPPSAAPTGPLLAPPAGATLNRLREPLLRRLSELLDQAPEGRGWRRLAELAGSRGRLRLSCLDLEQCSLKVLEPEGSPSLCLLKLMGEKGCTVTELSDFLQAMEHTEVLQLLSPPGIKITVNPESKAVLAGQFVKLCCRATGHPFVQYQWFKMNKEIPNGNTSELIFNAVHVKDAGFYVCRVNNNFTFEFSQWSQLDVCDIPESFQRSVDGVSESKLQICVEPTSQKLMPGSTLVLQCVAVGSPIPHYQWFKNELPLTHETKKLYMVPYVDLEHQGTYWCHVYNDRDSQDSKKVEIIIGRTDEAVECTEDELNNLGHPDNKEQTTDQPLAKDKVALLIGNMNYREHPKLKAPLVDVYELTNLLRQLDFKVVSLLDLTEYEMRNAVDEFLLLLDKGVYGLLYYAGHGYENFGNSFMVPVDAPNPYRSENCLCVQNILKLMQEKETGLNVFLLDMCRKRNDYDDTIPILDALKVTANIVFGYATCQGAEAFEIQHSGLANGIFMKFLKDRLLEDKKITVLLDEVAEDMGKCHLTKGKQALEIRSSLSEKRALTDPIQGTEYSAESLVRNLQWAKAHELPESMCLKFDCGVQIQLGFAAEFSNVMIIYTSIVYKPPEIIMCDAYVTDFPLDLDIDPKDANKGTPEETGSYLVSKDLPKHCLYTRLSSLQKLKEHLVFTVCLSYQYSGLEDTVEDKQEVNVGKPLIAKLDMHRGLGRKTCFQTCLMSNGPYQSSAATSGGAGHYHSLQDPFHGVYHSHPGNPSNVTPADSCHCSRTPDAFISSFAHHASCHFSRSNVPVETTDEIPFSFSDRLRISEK

[4] = OCI-LY3 cells, 24 h incubation, supernatant, MSD V-Plex

SMILES | IC50 ([1]; OCI-Ly3, 24 h) | IC50 ([2]; OCI-Ly3, 24 h) | IC50 [3] | IC50 [1, 4] | IC50 [2, 4]
N#Cc1cc(NC(=O)c2cnn(-c3c(Cl)cc(F)cc3Cl)c2C(F)(F)F)cnc1-n1nccn1 [Cpd 102, N-(5-cyano-6-(2H-1,2,3-triazol-2-yl)pyridin-3-yl)-1-(2,6-dichloro-4-fluorophenyl)-5-(trifluoromethyl)-1H-pyrazole-4-carboxamide] | 158 nM | 158 nM | 151 nM | – | –
N#Cc1ccc(-n2ncc(C(=O)Nc3cnc(-n4nccn4)c(Cl)c3)c2C(F)(F)F)nc1N [Cpd 140, 1-(6-amino-5-cyanopyridin-2-yl)-N-(5-chloro-6-(2H-1,2,3-triazol-2-yl)pyridin-3-yl)-5-(trifluoromethyl)-1H-pyrazole-4-carboxamide] | – | – | 58 nM | 123 nM | 132 nM
Cc1cc(F)c(N)nc1-n1ncc(C(=O)Nc2cnc(-n3nccn3)c(Cl)c2)c1C(F)(F)F [Cpd 146, 1-(6-amino-5-fluoro-3-methylpyridin-2-yl)-N-(5-chloro-6-(2H-1,2,3-triazol-2-yl)pyridin-3-yl)-5-(trifluoromethyl)-1H-pyrazole-4-carboxamide] | 158 nM | 195 nM | 107 nM | – | –
Nc1nc(-n2ncc(C(=O)Nc3cnc(-n4nccn4)c(C(F)(F)F)c3)c2C(F)(F)F)ccc1F [Cpd 147, N-(6-(2H-1,2,3-triazol-2-yl)-5-(trifluoromethyl)pyridin-3-yl)-1-(6-amino-5-fluoropyridin-2-yl)-5-(trifluoromethyl)-1H-pyrazole-4-carboxamide] | 40 nM | 52 nM | 69 nM | – | –
Cc1cc(Cl)ccc1-n1ncc(C(=O)Nc2cnc(-n3nccn3)c(C#N)c2)c1C(F)(F)F [Cpd 166, 1-(4-chloro-2-methylphenyl)-N-(5-cyano-6-(2H-1,2,3-triazol-2-yl)pyridin-3-yl)-5-(trifluoromethyl)-1H-pyrazole-4-carboxamide] | – | – | 50 nM | 78 nM | 66 nM
Cc1cc(N)nc(-n2ncc(C(=O)Nc3cnc(-n4nccn4)c(C#N)c3)c2C(F)(F)F)c1 [Cpd 176, 1-(6-amino-4-methylpyridin-2-yl)-N-(5-cyano-6-(2H-1,2,3-triazol-2-yl)pyridin-3-yl)-5-(trifluoromethyl)-1H-pyrazole-4-carboxamide] | – | – | 170 nM | 813 nM | 813 nM
Cc1nc(-n2nccn2)c(C#N)cc1NC(=O)c1cnn(-c2ccc(F)c(N)n2)c1C(F)(F)F [Cpd 182, 1-(6-amino-5-fluoropyridin-2-yl)-N-(5-cyano-2-methyl-6-(2H-1,2,3-triazol-2-yl)pyridin-3-yl)-5-(trifluoromethyl)-1H-pyrazole-4-carboxamide] | – | – | 234 nM | 389 nM | 490 nM
N#Cc1cc(NC(=O)c2cnn(-c3ccc(Cl)c(N)n3)c2C(F)(F)F)cnc1-n1nccn1 [Cpd 144, 1-(6-amino-5-chloropyridin-2-yl)-N-(5-cyano-6-(2H-1,2,3-triazol-2-yl)pyridin-3-yl)-5-(trifluoromethyl)-1H-pyrazole-4-carboxamide] | 26 nM | 46 nM | 35 nM | – | –
Cc1cc(C#N)ccc1-n1ncc(C(=O)Nc2cnc(-n3nccn3)c(Cl)c2)c1C(F)(F)F [Cpd 37, N-(5-chloro-6-(2H-1,2,3-triazol-2-yl)pyridin-3-yl)-1-(4-cyano-2-methylphenyl)-5-(trifluoromethyl)-1H-pyrazole-4-carboxamide] | – | – | 63 nM | 63 nM | 95 nM
Cc1ccc(N)nc1-n1ncc(C(=O)Nc2cnc(-n3nccn3)c(C#N)c2)c1C(F)(F)F [Cpd 141, 1-(6-amino-3-methylpyridin-2-yl)-N-(5-cyano-6-(2H-1,2,3-triazol-2-yl)pyridin-3-yl)-5-(trifluoromethyl)-1H-pyrazole-4-carboxamide] | – | – | 100 nM | 407 nM | 427 nM
Cc1c(F)cccc1-n1ncc(C(=O)Nc2cnc(-n3nccn3)c(C#N)c2)c1C(F)(F)F [Cpd 167, N-(5-cyano-6-(2H-1,2,3-triazol-2-yl)pyridin-3-yl)-1-(3-fluoro-2-methylphenyl)-5-(trifluoromethyl)-1H-pyrazole-4-carboxamide] | – | – | 69 nM | 41 nM | 54 nM
Nc1cccc(-n2ncc(C(=O)Nc3cnc(-n4nccn4)c(Cl)c3)c2C(F)(F)F)n1 [Cpd 180, 1-(6-aminopyridin-2-yl)-N-(5-chloro-6-(2H-1,2,3-triazol-2-yl)pyridin-3-yl)-5-(trifluoromethyl)-1H-pyrazole-4-carboxamide] | – | – | 219 nM | 170 nM | 257 nM
N#Cc1cc(NC(=O)c2cnn(-c3c(F)cc(F)cc3F)c2C(F)(F)F)cnc1-n1nccn1 [Cpd 173, N-(5-cyano-6-(2H-1,2,3-triazol-2-yl)pyridin-3-yl)-5-(trifluoromethyl)-1-(2,4,6-trifluorophenyl)-1H-pyrazole-4-carboxamide] | – | – | 151 nM | 95 nM | 129 nM
Cc1cc(F)cnc1-n1ncc(C(=O)Nc2cnc(-n3nccn3)c(C#N)c2)c1C(F)(F)F [Cpd 113, N-(5-cyano-6-(2H-1,2,3-triazol-2-yl)pyridin-3-yl)-1-(5-fluoro-3-methylpyridin-2-yl)-5-(trifluoromethyl)-1H-pyrazole-4-carboxamide] | – | – | 158 nM | 324 nM | 372 nM
N#Cc1cc(NC(=O)c2cnn(-c3nc(N)ccc3Cl)c2C(F)(F)F)cnc1-n1nccn1 [Cpd 175, 1-(6-amino-3-chloropyridin-2-yl)-N-(5-cyano-6-(2H-1,2,3-triazol-2-yl)pyridin-3-yl)-5-(trifluoromethyl)-1H-pyrazole-4-carboxamide] | – | – | 141 nM | 229 nM | 331 nM
N#Cc1cc(NC(=O)c2cnn(-c3ccccc3Cl)c2C(F)(F)F)cnc1-n1nccn1 [Cpd 116, 1-(2-chlorophenyl)-N-(5-cyano-6-(2H-1,2,3-triazol-2-yl)pyridin-3-yl)-5-(trifluoromethyl)-1H-pyrazole-4-carboxamide] | – | – | 117 nM | 105 nM | 107 nM
N#Cc1cc(NC(=O)c2cnn(-c3ccc(F)c(F)c3F)c2C(F)(F)F)cnc1-n1nccn1 [Cpd 97, N-(5-cyano-6-(2H-1,2,3-triazol-2-yl)pyridin-3-yl)-5-(trifluoromethyl)-1-(2,3,4-trifluorophenyl)-1H-pyrazole-4-carboxamide] | – | – | 263 nM | 95 nM | 151 nM
O=C(Nc1cnc(-n2nccn2)c(Cl)c1)c1cnn(-c2ccc(F)c(F)c2Cl)c1C(F)(F)F [Cpd 73, 1-(2-chloro-3,4-difluorophenyl)-N-(5-chloro-6-(2H-1,2,3-triazol-2-yl)pyridin-3-yl)-5-(trifluoromethyl)-1H-pyrazole-4-carboxamide] | – | – | 234 nM | 110 nM | 138 nM
Cc1cnccc1-n1ncc(C(=O)Nc2cnc(-n3nccn3)c(Cl)c2)c1C(F)(F)F [Cpd 158, N-(5-chloro-6-(2H-1,2,3-triazol-2-yl)pyridin-3-yl)-1-(3-methylpyridin-4-yl)-5-(trifluoromethyl)-1H-pyrazole-4-carboxamide] | 302 nM | 275 nM | 209 nM | – | –
N#Cc1ccc(-n2ncc(C(=O)Nc3cnc(-n4nccn4)c(C#N)c3)c2C(F)(F)F)cc1 [Cpd 169, N-(5-cyano-6-(2H-1,2,3-triazol-2-yl)pyridin-3-yl)-1-(4-cyanophenyl)-5-(trifluoromethyl)-1H-pyrazole-4-carboxamide] | – | – | 91 nM | 76 nM | 105 nM
